In patent publication US4442044A, “Process for preparing monoesters and diesters of N-alkyl substituted amino methyl phosphonic acid” (priority 1983, dated 1984):

How the values were obtained:
Experiment in all cases: post-emergent herbicidal activity, greenhouse
Type in all cases: in vivo
Details in all cases: Table I
Canada Thistle = test system: Canada Thistle
Text: (§1) A good grade of top soil is placed in aluminum pans having holes in the bottom and compacted to a depth of 0.95 to 1.27 cm. from the top of the pan. A predetermined number of seeds of each of several dicotyledonous and monocotyledonous annual plant species and/or vegetative propagules for the perennial plant species were placed on the soil and pressed into the soil surface. The seeds and/or vegetative propagules are covered with soil and leveled. The pans are then placed on a sand bench in the greenhouse and watered from below as needed. After the plants reach the desired age (two to three weeks), each pan except for the control pans is removed individually to a spraying chamber and sprayed by means of an atomizer operating at a positive air pressure of approximately 1.46 kg/cm^2 absolute. The atomizer contains 6 ml. of a solution or suspension of the chemical. In that 6 ml., is an amount of a cyclohexanone emulsifying agent mixture to give a spray solution or suspension which contains about 0.4% by weight of the emulsifier. The spray solution or suspension contains a sufficient amount of the candidate chemical in order to give application rates corresponding to those set forth in the tables. The spray solution is prepared by taking an aliquot of a 1.0% by weight stock solution or suspension of the candidate chemical in an organic solvent such as acetone or tetrahydrofuran or in water. The emulsifying agent employed is a mixture comprising 35 weight percent butylamine dodecylbenzene sulfonate and 65 weight percent of a tall oil ethylene oxide condensate having about 11 moles of ethylene oxide per mole of tall oil. The pans are returned to the greenhouse and watered as before and the injury to the plants as compared to the control is observed at approximately two and four weeks as indicated in the tables under WAT and the results recorded. In some instances, the two-week observations are omitted.
(§2) The post-emergent herbicidal activity index used in Tables I and II is as follows: […]

Johnsongrass = test system: Johnsongrass
Text: as §1, §2

Morningglory = test system: Morningglory
Text: as §1, §2

Velvetleaf = test system: Velvetleaf
Text: as §1, §2

Cocklebur = test system: Cocklebur
Text: as §1, §2

Downy Brome = test system: Downy Brome
Text: as §1, §2

Quackgrass = test system: Quackgrass
Text: as §1, §2

Barnyardgrass = test system: Barnyardgrass
Text: as §1, §2

Smartweed = test system: Smartweed
Text: as §1, §2

Lambsquarters = test system: Lambsquarters
Text: as §1, §2

Yellow Nutsedge = test system: Yellow Nutsedge
Text: as §1, §2

**Q.** Which results are given for `CCOC(=O)CNCP(=O)(OC(C)(C)C#N)OC(C)(C)C#N` [Example 2, glycine, N-[bis(1-cyano-1-methyl-ethoxy)phosphinylmethyl], ethyl ester]?
**A.** post-emergent herbicidal activity index (Canada Thistle; 4 WAT, 56.0 kg/h): 4 (100% control); post-emergent herbicidal activity index (Johnsongrass; 2 WAT, 5.6 kg/h): 0 (0-24% control); post-emergent herbicidal activity index (Johnsongrass; 4 WAT, 11.2 kg/h): 0 (0-24% control); post-emergent herbicidal activity index (Johnsongrass; 4 WAT, 56.0 kg/h): 0 (0-24% control); post-emergent herbicidal activity index (Morningglory; 2 WAT, 5.6 kg/h): 0 (0-24% control); post-emergent herbicidal activity index (Morningglory; 4 WAT, 11.2 kg/h): 0 (0-24% control); post-emergent herbicidal activity index (Morningglory; 4 WAT, 56.0 kg/h): 1 (25-49% control); post-emergent herbicidal activity index (Velvetleaf; 2 WAT, 5.6 kg/h): 0 (0-24% control); post-emergent herbicidal activity index (Velvetleaf; 4 WAT, 11.2 kg/h): 0 (0-24% control); post-emergent herbicidal activity index (Velvetleaf; 4 WAT, 56.0 kg/h): 0 (0-24% control); post-emergent herbicidal activity index (Cocklebur; 2 WAT, 5.6 kg/h): 0 (0-24% control); post-emergent herbicidal activity index (Cocklebur; 4 WAT, 11.2 kg/h): 0 (0-24% control); post-emergent herbicidal activity index (Cocklebur; 4 WAT, 56.0 kg/h): 1 (25-49% control); post-emergent herbicidal activity index (Downy Brome; 2 WAT, 5.6 kg/h): 0 (0-24% control); post-emergent herbicidal activity index (Downy Brome; 4 WAT, 11.2 kg/h): 0 (0-24% control); post-emergent herbicidal activity index (Downy Brome; 4 WAT, 56.0 kg/h): 0 (0-24% control); post-emergent herbicidal activity index (Quackgrass; 2 WAT, 5.6 kg/h): 0 (0-24% control); post-emergent herbicidal activity index (Quackgrass; 4 WAT, 11.2 kg/h): 0 (0-24% control); post-emergent herbicidal activity index (Quackgrass; 4 WAT, 56.0 kg/h): 0 (0-24% control); post-emergent herbicidal activity index (Barnyardgrass; 2 WAT, 5.6 kg/h): 0 (0-24% control); post-emergent herbicidal activity index (Barnyardgrass; 4 WAT, 11.2 kg/h): 1 (25-49% control); post-emergent herbicidal activity index (Barnyardgrass; 4 WAT, 56.0 kg/h): 0 (0-24% control); post-emergent herbicidal activity index (Smartweed; 2 WAT, 5.6 kg/h): 0 (0-24% control); post-emergent herbicidal activity index (Smartweed; 4 WAT, 11.2 kg/h): 0 (0-24% control); post-emergent herbicidal activity index (Smartweed; 4 WAT, 56.0 kg/h): 1 (25-49% control); post-emergent herbicidal activity index (Lambsquarters; 2 WAT, 5.6 kg/h): 0 (0-24% control); post-emergent herbicidal activity index (Lambsquarters; 4 WAT, 11.2 kg/h): 0 (0-24% control); post-emergent herbicidal activity index (Lambsquarters; 4 WAT, 56.0 kg/h): 1 (25-49% control); post-emergent herbicidal activity index (Yellow Nutsedge; 2 WAT, 5.6 kg/h): 0 (0-24% control); post-emergent herbicidal activity index (Yellow Nutsedge; 4 WAT, 11.2 kg/h): 0 (0-24% control); post-emergent herbicidal activity index (Yellow Nutsedge; 4 WAT, 56.0 kg/h): 0 (0-24% control)

**Q.** With `C#CCNCP(=O)(OC(C)C#N)OC(C)C#N` (stereo not drawn) [Example 3, phosphonic acid, [(2-propnylamino)methyl]-,bis(1-cyanoethyl)ester] as the compound, how does the “post-emergent herbicidal activity index” value (Canada Thistle; 2 WAT, 11.2 kg/h) read?
**A.** 0 (0-24% control)

**Q.** What about the “post-emergent herbicidal activity index” value (Johnsongrass; 2 WAT, 11.2 kg/h) of the same compound?
**A.** 0 (0-24% control)

**Q.** What about the “post-emergent herbicidal activity index” value (Morningglory; 2 WAT, 11.2 kg/h) of the same compound?
**A.** 0 (0-24% control)

**Q.** And the “post-emergent herbicidal activity index” value (Velvetleaf; 2 WAT, 11.2 kg/h)?
**A.** 0 (0-24% control)

**Q.** And the “post-emergent herbicidal activity index” value (Cocklebur; 2 WAT, 11.2 kg/h)?
**A.** 0 (0-24% control)

**Q.** What about the “post-emergent herbicidal activity index” value (Downy Brome; 2 WAT, 11.2 kg/h) of the same compound?
**A.** 0 (0-24% control)

**Q.** What about the “post-emergent herbicidal activity index” value (Quackgrass; 2 WAT, 11.2 kg/h) of the same compound?
**A.** 0 (0-24% control)

**Q.** And the “post-emergent herbicidal activity index” value (Barnyardgrass; 2 WAT, 11.2 kg/h)?
**A.** 2 (50-74% control)

**Q.** And the “post-emergent herbicidal activity index” value (Smartweed; 2 WAT, 11.2 kg/h)?
**A.** 1 (25-49% control)

**Q.** What about the “post-emergent herbicidal activity index” value (Lambsquarters; 2 WAT, 11.2 kg/h) of the same compound?
**A.** 0 (0-24% control)

**Q.** What about the “post-emergent herbicidal activity index” value (Yellow Nutsedge; 2 WAT, 11.2 kg/h) of the same compound?
**A.** 0 (0-24% control)
